# Test results: US9695155B2, “Herbicidal substituted pyrimidinyloxy benzene compounds” (E. I. DU PONT DE NEMOURS AND COMPANY, priority 2013, dated 2017)
# Key:
# Italian ryegrass = assay: Test C postemergence; assay type: in vivo, Lolium multiflorum
# Excerpt: (§1) Seeds of plant species selected from blackgrass (Alopecurus myosuroides), Italian ryegrass (Lolium multiflorum), wheat, winter (winter wheat, Triticum aestivum), galium (catchweed bedstraw, Galium aparine), corn (Zea mays), large (Lg) crabgrass (Digitaria sanguinalis), giant foxtail (Setaria faberii), johnsongrass (Sorghum halepense), lambsquarters (Chenopodium album), morningglory (Ipomoea coccinea), yellow nutsedge (Cyperus esculentus), pigweed (Amaranthus retroflexus), ragweed (common ragweed, Ambrosia elatior), soybean (Glycine max), barnyardgrass (Echinochloa crus-galli), oilseed rape (Brassica napus), waterhemp (common waterhemp, Amaranthus rudis), kochia (Kochia scoparia), wild oat (Avena fatua), surinam grass (Brachiaria decumbens), foxtail, green (green foxtail, Setaria viridis), goosegrass (Eleusine indica), bromegrass, downy (downy bromegrass, Bromus tectorum), nightshade (eastern black nightshade, Solanum ptycanthum), cocklebur (common cocklebur, Xanthium strumarium), cupgrass, woolly (woolly cupgrass, Eriochloa villosa), bermudagrass (Cynodon dactylon), sunflower, (common oilseed sunflower, Helianthus annuus), Russian thistle (Salsola kali), and velvetleaf (Abutilon theophrasti) were planted into a blend of loam soil and sand and treated preemergence with test chemicals formulated in a non-phytotoxic solvent mixture which included a surfactant.
# (§2) At the same time, plants selected from these crop and weed species and also barley, winter (winter barley, Hordeum vulgare), windgrass (Apera spica-venti), chickweed (common chickweed, Stellaria media), deadnettle (henbit deadnettle, Lamium amplexicaule), and canarygrass (littleseed canarygrass, Phalaris minor) were planted in pots containing Redi-Earth® planting medium (Scotts Company, 14111 Scottslawn Road, Marysville, Ohio 43041) comprising spaghnum peat moss, vermiculite, wetting agent and starter nutrients and treated with postemergence applications of test chemicals formulated in the same manner. Plants ranged in height from 2 to 18 cm (1- to 4-leaf stage) for postemergence treatments. Treated plants and controls were maintained in a greenhouse for 13 to 15 days, after which time all species were compared to controls and visually evaluated. Plant response ratings, summarized in Table C, are based on a scale of 0 to 100 where 0 is no effect and 100 is complete control. A dash (-) response means no test result.
# Heteranthera limosa = assay: Test B flooded paddy test; assay type: in vivo; conditions: Flood, 250 g ai/ha, 0 to 100 scale where 0 is no effect and 100 is complete control
# Method in brief: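 Flooded to 3 cm at the 2-leaf stage, pots received compound through the paddy water and were kept at that depth under greenhouse conditions. After 13–15 days, effect was rated by eye relative to controls, 0 = none and 100 = complete control.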
# giant foxtail [1] = assay: Test A preemergence; assay type: in vivo, Setaria faberii
# Method in brief: (§3)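 Injury scores run from 0, no effect, to 100, complete control, judged by eye against untreated plants roughly 10 days after treatment. Chemicals carried a surfactant in a non-phytotoxic solvent and went onto loam–sand soil preemergence or onto one- to two-leaf seedlings postemergence.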
# johnsongrass = assay: Test C postemergence; assay type: in vivo, Sorghum halepense
# Excerpt: as §1, §2
# morningglory = assay: Test A postemergence; assay type: in vivo, Ipomoea spp.
# Method in brief: as §3
# giant foxtail [2] = assay: Test A postemergence; assay type: in vivo, Setaria faberii
# Method in brief: as §3
# pigweed = assay: Test A postemergence; assay type: in vivo, Amaranthus retroflexus
# Method in brief: as §3
# soybean = assay: Test C postemergence; assay type: in vivo, Glycine max
# Excerpt: as §1, §2
# barnyardgrass = assay: Test A postemergence; assay type: in vivo, Echinochloa crus-galli
# Method in brief: as §3
# [3] = 31 g ai/ha, postemergence, visual rating, scale 0 to 100 (0 no effect, 100 complete control), 13 to 15 days
# [4] = 125 g ai/ha, 0 to 100 scale where 0 is no effect and 100 is complete control
# [5] = Postemergence, 31 g ai/ha, scale 0 to 100 (0 no effect, 100 complete control), 13 to 15 days
# [6] = Postemergence, 62 g ai/ha, scale 0 to 100 (0 no effect, 100 complete control)
# [7] = 1000 g ai/ha, 0 to 100 scale, 0 no effect, 100 complete control, approx. 10 days
# [8] = 1000 g ai/ha, 0 to 100 scale, 0 no effect, 100 complete control
# [9] = 125 g ai/ha, postemergence, visual rating, scale 0 to 100 (0 no effect, 100 complete control)
# [10] = Postemergence, 62 g ai/ha, scale 0 to 100 (0 no effect, 100 complete control), 13 to 15 days
# [11] = 500 g ai/ha, 0 to 100 scale where 0 is no effect and 100 is complete control
# [12] = 125 g ai/ha, 0 to 100 scale, 0 no effect, 100 complete control
# [13] = 16 g ai/ha, postemergence, 0 is no effect, 100 is complete control
# [14] = 31 g ai/ha, 0 to 100 scale, 0 no effect, 100 complete control
smiles,measurement,setting,value
"Fc1cccc(Oc2ncc(Cl)cn2)c1-n1cc(Br)cn1 [Compound 178, 2-[2-(4-bromo-1H-pyrazol-1-yl)-3-fluorophenoxy]-5-chloropyrimidine]","Ryegrass, Italian plant response rating",Italian ryegrass; [3],0
same,pest or weed control at 16 g/ha,"Italian ryegrass; Lolium multiflorum, post-emergence, 16 g ai/ha, postemergence, 0 is no effect, 100 is complete control, read-out: Plant response rating (0 to 100), Ryegrass, Italian",0%
same,pest or weed control at 125 g/ha,"Italian ryegrass; Lolium multiflorum, post-emergence, 125 g ai/ha, postemergence, visual rating, scale 0 to 100 (0 no effect, 100 complete control), read-out: Plant response rating, Ryegrass, Italian",20%
same,pest or weed control at 62 g/ha,"Italian ryegrass; Lolium multiflorum, post-emergence, Postemergence, 62 g ai/ha, scale 0 to 100 (0 no effect, 100 complete control), read-out: Plant response rating, Ryegrass, Italian",0%
same,pest or weed control at 250 g/ha,"Heteranthera limosa; Heteranthera limosa, read-out: Plant response rating, Ducksalad",0%
same,pest or weed control at 125 g/ha,"giant foxtail [1]; Setaria faberi, pre-emergence, 240 h, 125 g ai/ha, 0 to 100 scale where 0 is no effect and 100 is complete control, read-out: Plant response rating, Foxtail, Giant",100%
same,pest or weed control at 500 g/ha,"giant foxtail [1]; Setaria faberi, pre-emergence, 240 h, 500 g ai/ha, 0 to 100 scale where 0 is no effect and 100 is complete control, read-out: Foxtail, Giant plant response rating",100%
same,Johnsongrass plant response rating,johnsongrass; [3],5
same,pest or weed control at 16 g/ha,"johnsongrass; Sorghum halepense, post-emergence, 16 g ai/ha, postemergence, 0 is no effect, 100 is complete control, read-out: Plant response rating (0 to 100), Johnsongrass",0%
same,pest or weed control at 125 g/ha,"johnsongrass; Sorghum halepense, post-emergence, 125 g ai/ha, postemergence, visual rating, scale 0 to 100 (0 no effect, 100 complete control), read-out: Plant response rating, Johnsongrass",35%
same,pest or weed control at 62 g/ha,"johnsongrass; Sorghum halepense, post-emergence, Postemergence, 62 g ai/ha, scale 0 to 100 (0 no effect, 100 complete control), read-out: Plant response rating, Johnsongrass",15%
same,Morningglory plant response rating,morningglory; [4],70
same,pest or weed control at 500 g/ha,"morningglory; Ipomoea, post-emergence, 240 h, 500 g ai/ha, 0 to 100 scale where 0 is no effect and 100 is complete control, read-out: Plant response rating, Morningglory",100%
same,pest or weed control at 125 g/ha,"giant foxtail [2]; Setaria faberi, post-emergence, 240 h, 125 g ai/ha, 0 to 100 scale where 0 is no effect and 100 is complete control, read-out: Foxtail, Giant plant response rating",90%
same,pest or weed control at 500 g/ha,"giant foxtail [2]; Setaria faberi, post-emergence, 240 h, 500 g ai/ha, 0 to 100 scale where 0 is no effect and 100 is complete control, read-out: Plant response rating, Foxtail, Giant",100%
same,pest or weed control at 500 g/ha,"pigweed; Amaranthus retroflexus, post-emergence, 500 g ai/ha, 0 to 100 scale where 0 is no effect and 100 is complete control, read-out: Plant response rating, Pigweed",100%
same,pest or weed control at 125 g/ha,"pigweed; Amaranthus retroflexus, post-emergence, 240 h, 125 g ai/ha, 0 to 100 scale where 0 is no effect and 100 is complete control, read-out: Pigweed plant response rating",100%
same,Soybean plant response rating,soybean; [3],70
same,"Soybean plant response rating (crop injury, 0-100 scale) at 16 g/ha","soybean; Glycine max, post-emergence, 16 g ai/ha, postemergence, 0 is no effect, 100 is complete control",50%
same,"Soybean plant response rating (crop injury, 0-100 scale) at 125 g/ha","soybean; Glycine max, post-emergence, 125 g ai/ha, postemergence, visual rating, scale 0 to 100 (0 no effect, 100 complete control), read-out: Plant response rating, Soybean",95%
same,"Soybean plant response rating (crop injury, 0-100 scale) at 62 g/ha","soybean; Glycine max, post-emergence, Postemergence, 62 g ai/ha, scale 0 to 100 (0 no effect, 100 complete control)",65%
same,pest or weed control at 125 g/ha,"barnyardgrass; Echinochloa crus-galli, post-emergence, 240 h, 125 g ai/ha, 0 to 100 scale where 0 is no effect and 100 is complete control, read-out: Barnyardgrass plant response rating",70%
same,pest or weed control at 500 g/ha,"barnyardgrass; Echinochloa crus-galli, post-emergence, 240 h, 500 g ai/ha, 0 to 100 scale where 0 is no effect and 100 is complete control, read-out: Plant response rating, Barnyardgrass",100%
Clc1cnc(Oc2cccc(Br)c2-n2cc(Br)cn2)nc1 [Compound 65],"Plant response rating (0 to 100), Ryegrass, Italian","Italian ryegrass; 125 g ai/ha, postemergence",5
same,"Plant response rating, Ryegrass, Italian",Italian ryegrass; [5],0
same,"Plant response rating, Ryegrass, Italian",Italian ryegrass; [6],0
same,"Plant response rating, Ducksalad",Heteranthera limosa,95
same,"Foxtail, Giant plant response rating",giant foxtail [1]; [7],100
same,Johnsongrass plant response rating,"johnsongrass; 16 g ai/ha, postemergence, visual rating, scale 0 to 100 (0 no effect, 100 complete control), 13 to 15 days",5
same,"Plant response rating (0 to 100), Johnsongrass","johnsongrass; 125 g ai/ha, postemergence",5
same,"Plant response rating, Johnsongrass",johnsongrass; [5],5
same,"Plant response rating, Johnsongrass",johnsongrass; [6],5
same,"Plant response rating, Morningglory",morningglory; [8],100
same,"Plant response rating, Foxtail, Giant",giant foxtail [2]; [8],100
same,"Plant response rating, Pigweed",pigweed; [8],100
same,"Plant response rating (0 to 100), Soybean","soybean; 125 g ai/ha, postemergence",85
same,"Plant response rating, Soybean",soybean; [5],40
same,"Plant response rating, Soybean",soybean; [6],60
same,"Plant response rating, Barnyardgrass",barnyardgrass; [8],100
N#Cc1cccc(Oc2ncc(Cl)cn2)c1-n1cc(-n2ccc(C(F)(F)F)n2)cn1 [Compound 284],"Ryegrass, Italian plant response rating",Italian ryegrass; [3],5
same,"Plant response rating, Ryegrass, Italian",Italian ryegrass; [9],5
same,"Plant response rating (0 to 100), Ryegrass, Italian","Italian ryegrass; 250 g ai/ha, postemergence",5
same,"Plant response rating, Ryegrass, Italian",Italian ryegrass; [10],5
same,"Plant response rating, Ducksalad",Heteranthera limosa,80
same,"Foxtail, Giant plant response rating (0 to 100 scale)",giant foxtail [1]; 125 g ai/ha,90
same,"Foxtail, Giant plant response rating",giant foxtail [1]; [11],90
same,Johnsongrass plant response rating,johnsongrass; [3],5
same,"Plant response rating, Johnsongrass",johnsongrass; [9],20
same,"Plant response rating (0 to 100), Johnsongrass","johnsongrass; 250 g ai/ha, postemergence",20
same,"Plant response rating, Johnsongrass",johnsongrass; [10],5
same,"Plant response rating, Foxtail, Giant",giant foxtail [2]; [12],90
same,"Plant response rating, Foxtail, Giant",giant foxtail [2]; [11],90
same,"Plant response rating, Pigweed",pigweed; [12],100
same,"Plant response rating, Pigweed",pigweed; [11],100
same,Soybean plant response rating,soybean; [3],35
same,"Plant response rating, Soybean",soybean; [9],85
same,"Plant response rating (0 to 100), Soybean","soybean; 250 g ai/ha, postemergence",65
same,"Plant response rating, Soybean",soybean; [10],40
same,"Plant response rating, Barnyardgrass",barnyardgrass; [12],30
same,"Plant response rating, Barnyardgrass",barnyardgrass; [11],90
Fc1cccc(Oc2ncc(Cl)cn2)c1-n1cc(C2CC2)nn1 [Compound 155],"Plant response rating (0 to 100), Ryegrass, Italian",Italian ryegrass; [13],0
same,"Ryegrass, Italian plant response rating",Italian ryegrass; [3],0
same,"Plant response rating, Ryegrass, Italian",Italian ryegrass; [9],10
same,"Plant response rating, Ryegrass, Italian",Italian ryegrass; [6],10
same,"Plant response rating, Ducksalad",Heteranthera limosa,100
same,"Foxtail, Giant plant response rating",giant foxtail [1]; [7],100
same,"Plant response rating (0 to 100), Johnsongrass",johnsongrass; [13],0
same,Johnsongrass plant response rating,johnsongrass; [3],0
same,"Plant response rating, Johnsongrass",johnsongrass; [9],5
same,"Plant response rating, Johnsongrass",johnsongrass; [6],5
same,"Plant response rating, Foxtail, Giant",giant foxtail [2]; [8],100
same,"Plant response rating, Pigweed",pigweed; [8],100
same,"Plant response rating (0 to 100), Soybean",soybean; [13],5
same,Soybean plant response rating,soybean; [3],70
same,"Plant response rating, Soybean",soybean; [9],80
same,"Plant response rating, Soybean",soybean; [6],75
same,"Plant response rating, Barnyardgrass",barnyardgrass; [8],100
FCc1cccc(Oc2ncc(Br)cn2)c1-n1cc(C(F)(F)F)cn1 [Compound 120],"Plant response rating (0 to 100), Ryegrass, Italian",Italian ryegrass; [13],0
same,"Plant response rating, Ryegrass, Italian",Italian ryegrass; [9],5
same,"Plant response rating, Ryegrass, Italian",Italian ryegrass; [6],0
same,"Plant response rating, Ducksalad",Heteranthera limosa,95
same,"Foxtail, Giant plant response rating (0 to 100 scale)",giant foxtail [1]; 31 g ai/ha,50
same,"Plant response rating, Foxtail, Giant",giant foxtail [1]; [4],100
same,"Plant response rating (0 to 100), Johnsongrass",johnsongrass; [13],0
same,"Plant response rating, Johnsongrass",johnsongrass; [9],10
same,"Plant response rating, Johnsongrass",johnsongrass; [6],5
same,"Plant response rating, Foxtail, Giant",giant foxtail [2]; [14],20
same,"Plant response rating, Foxtail, Giant",giant foxtail [2]; [4],70
same,"Plant response rating, Pigweed",pigweed; [14],60
same,"Plant response rating (0 to 100), Soybean",soybean; [13],30
same,"Plant response rating, Soybean",soybean; [9],80
same,"Plant response rating, Soybean",soybean; [6],30
same,"Plant response rating, Barnyardgrass",barnyardgrass; [14],20
same,"Plant response rating, Barnyardgrass",barnyardgrass; [4],80
